Experiments:
[1] = biological target: T1, CFTR (ΔF508 homozygous CF-HBE cells) (Homo sapiens, UniProt P13569, DEL508-508); experiment: TECC24 AUC fold over DMSO @10 uM: CFTR-mediated transepithelial chloride transport in primary CF-HBE cells; type: cell-based; conditions: 10 μM test agent, 48 hours, forskolin-stimulated IEQ AUC divided by vehicle AUC
T1 construct: Primary human bronchial epithelial cells from a ΔF508 homozygous CF donor; host or cells: primary CF-HBE cells (ΔF508/ΔF508 donor)
Procedure: Example 37: TECC24 AUC Fold Over DMSO @10 uM
The effects of a test agent on CFTR-mediated transepithelial chloride transport was measured using TECC24 recording analysis. Test agents were solubilized in DMSO. Solubilized test agents were mixed with incubation medium containing DMEM/F12, Ultroser G (2%; Crescent Chemical, catalog #67042), Hyclone Fetal Clone 11(2%; GE Healthcare, catalog #SH30066.02), bovine brain extract (0.25%; Lonza, catalog #CC-4098), insulin (2.5 μg/mL), IL-13 (10 ng/mL), hydrocortisone (20 nM), transferrin (2.5 μg/mL), triiodothyronine (500 nM), ethanolamine (250 nM), epinephrine (1.5 μM), phosphoethanolamine (250 nM), and retinoic acid (10 nM). Primary human bronchial epithelial cells from a ΔF508 homozygous CF donor (CF-HBE cells; from University of North Carolina Cystic Fibrosis Tissue Procurement Center), grown on Transwell HTS 24-well cell culture inserts (Costar, catalog #3378), were exposed to test agents or controls dissolved in incubation medium. The CF-HBE cells were cultured at 36.5° C. for 48 hours before TECC24 recordings were performed in the presence or absence of test agent, a positive control or vehicle (DMSO).
Following incubation, the transwell cell culture inserts containing the test agent or control-treated CF-HBE cells were loaded onto a TECC24 apparatus (TECC v7 or MTECC v2; EP Design) to record the transepithelial voltage (VT) and resistance (TEER) using 4 AgCl electrodes per well configured in current-clamp mode. The apical and basolateral bath solutions both contained (in mM) 140 NaCl, 5 KCl, 2 CaCl2, 1 MgCl2, 10 Hepes, and 10 glucose (adjusted to pH 7.4 with NaOH). To inhibit basal Na+ absorption, the ENaC inhibitor benzamil (10 μM) was added to the bath. Then, the adenylate cyclase activator, forskolin (10 μM), was added to the bath to activate CFTR. The forskolin-stimulated Cl— transport was halted by addition of CFTR inhibitor-172 (20 μM) to the bath at the end of the experiment to confirm specificity. VT and TEER recordings were digitally acquired at routine intervals using TECC or MTECC software (EP Design). VT and TEER were transformed into equivalent transepithelial Cl-current (IEQ), and the Area Under the Curve (AUC) of the IEQ time course between forskolin and CFTR inhibitor-172 addition is generated using Excel (Microsoft). Efficacy is expressed as the ratio of the test agent AUC divided by vehicle AUC. EC50s based on AUC are generated using the non-linear regression log(agonist) vs. response function in Prism software (GraphPad) with Hill Slope fixed=1.
If a test agent increased the AUC of the forskolin-stimulated IEQ relative to vehicle in CF-HBE cells, and this increase was inhibited by CFTR inhibitor-172, then the test agent was considered a CFTR corrector.

[2] = biological target: T2, human Cystic Fibrosis Transmembrane Conductance Regulator (CFTR) harboring the ΔF508 mutation (Homo sapiens, UniProt P13569, DEL508-508); experiment: H441 cell Emax and EC50: HRP-tagged ΔF508-CFTR cell-surface luminescence assay; type: cell-based; conditions: H441 cells expressing HRP-tagged ΔF508-CFTR, 27° C. for two nights; for EC50: 15-point dose-response; for Emax: NCI-H441, % of maximum VX809 signal
T2 construct: expressed in transfected cells; host or cells: H441 carcinoma cell line (G418 selection)
Source text: Example 36: H441 Cell Emax and EC50
Two cell lines were used, the H441 carcinoma line and the CFHBE41o− (41o−) human bronchial epithelial line. Both cell lines expressed human Cystic Fibrosis Transmembrane Conductance Regulator (CFTR) harboring the ΔF508 mutation and with an in-frame fusion in CFTR extracellular loop 4 of Horse Radish Peroxidase (HRP) under control of the CMV promoter. In the presence of the HRP tag, ΔF508-CFTR transported to the cell surface was detectable upon addition of an HRP substrate (Luminata Forte). Both cell types were cultivated at 37° C. with CO2.
For both cell types, the medium was changed every other day unless the culture was at low % confluence. Cells were used for the assays at ˜75% confluence.
DMSO/Compound Dilutions Plate for 15-Point Dose-Response Testing
To a polypropylene (PP) 384-well plate, 15 μls DMSO was added to all wells in columns 1-22 and 24 (low Control). 15 μls of 260 μM VX809 (Lumacaftor), Selleckchem S1565, was added to column 23 wells (high Control). 15 μls of 10 mM test compound or VX809 (control) were added to wells of row A. Serial dilutions of Row A compound were performed 2×15 μls in rows A through 0 (15-point).
A PP, 384-well plate containing the appropriate cell culture medium was prepared for each assay plate with 100 μls per well. For the doxycycline-induced 41o− cells, doxycycline for both the assay plate and the medium dilution plate was added at 0.0005 mg/ml to the medium.
Both cell lines were plated for the assay at 30 μls per 384-well at 3.4×10^e5 cells per ml (˜10K cells/well). H441 cells were plated on opaque, white, Corning plate 3704. 41o− cells were plated on collagen-coated opaque, white, Corning plate 356665. For 41o− cells, doxycycline was added to the medium.
Compound Addition/Assay Incubation
Using FX (Beckman) protocol, 10 μls diluted compound or medium was added per well to the Assay Plate as: 2 μls DMSO Dilution plate well is diluted in 100 μls of the Medium Dilution Plate well, mixed, and 10 μls is transferred to the Assay Plate.
The final assay dilution series is 24.5, 12.3, 6.1, 3.1, 1.5, 0.8, 0.4, 0.2, 0.1, 0.05, 0.02, 0.01, 0.006, 0.003, 0.001 and 0 μM. The 41o− assay plates were incubated at 37° C. w/CO2, the H441 assay plates were incubated at 27° C. w/CO2, each overnight for two nights.
Assay Result Determination
After being brought to room temperature, the assay plate liquid was removed. 30 uls of Luminata Forte (Millipore ELLUF0100) was added per well and incubated at room temperature for 10 min. The plates were then read on a Topcount, protocol LumiMatti (CPS, luminescence). The data was analyzed for % of maximum, maximum VX809 signal, and EC50 using Pearl and SPEED tools.

T1 sequence (P13569 with tags, fused parts or gaps DEL508-508): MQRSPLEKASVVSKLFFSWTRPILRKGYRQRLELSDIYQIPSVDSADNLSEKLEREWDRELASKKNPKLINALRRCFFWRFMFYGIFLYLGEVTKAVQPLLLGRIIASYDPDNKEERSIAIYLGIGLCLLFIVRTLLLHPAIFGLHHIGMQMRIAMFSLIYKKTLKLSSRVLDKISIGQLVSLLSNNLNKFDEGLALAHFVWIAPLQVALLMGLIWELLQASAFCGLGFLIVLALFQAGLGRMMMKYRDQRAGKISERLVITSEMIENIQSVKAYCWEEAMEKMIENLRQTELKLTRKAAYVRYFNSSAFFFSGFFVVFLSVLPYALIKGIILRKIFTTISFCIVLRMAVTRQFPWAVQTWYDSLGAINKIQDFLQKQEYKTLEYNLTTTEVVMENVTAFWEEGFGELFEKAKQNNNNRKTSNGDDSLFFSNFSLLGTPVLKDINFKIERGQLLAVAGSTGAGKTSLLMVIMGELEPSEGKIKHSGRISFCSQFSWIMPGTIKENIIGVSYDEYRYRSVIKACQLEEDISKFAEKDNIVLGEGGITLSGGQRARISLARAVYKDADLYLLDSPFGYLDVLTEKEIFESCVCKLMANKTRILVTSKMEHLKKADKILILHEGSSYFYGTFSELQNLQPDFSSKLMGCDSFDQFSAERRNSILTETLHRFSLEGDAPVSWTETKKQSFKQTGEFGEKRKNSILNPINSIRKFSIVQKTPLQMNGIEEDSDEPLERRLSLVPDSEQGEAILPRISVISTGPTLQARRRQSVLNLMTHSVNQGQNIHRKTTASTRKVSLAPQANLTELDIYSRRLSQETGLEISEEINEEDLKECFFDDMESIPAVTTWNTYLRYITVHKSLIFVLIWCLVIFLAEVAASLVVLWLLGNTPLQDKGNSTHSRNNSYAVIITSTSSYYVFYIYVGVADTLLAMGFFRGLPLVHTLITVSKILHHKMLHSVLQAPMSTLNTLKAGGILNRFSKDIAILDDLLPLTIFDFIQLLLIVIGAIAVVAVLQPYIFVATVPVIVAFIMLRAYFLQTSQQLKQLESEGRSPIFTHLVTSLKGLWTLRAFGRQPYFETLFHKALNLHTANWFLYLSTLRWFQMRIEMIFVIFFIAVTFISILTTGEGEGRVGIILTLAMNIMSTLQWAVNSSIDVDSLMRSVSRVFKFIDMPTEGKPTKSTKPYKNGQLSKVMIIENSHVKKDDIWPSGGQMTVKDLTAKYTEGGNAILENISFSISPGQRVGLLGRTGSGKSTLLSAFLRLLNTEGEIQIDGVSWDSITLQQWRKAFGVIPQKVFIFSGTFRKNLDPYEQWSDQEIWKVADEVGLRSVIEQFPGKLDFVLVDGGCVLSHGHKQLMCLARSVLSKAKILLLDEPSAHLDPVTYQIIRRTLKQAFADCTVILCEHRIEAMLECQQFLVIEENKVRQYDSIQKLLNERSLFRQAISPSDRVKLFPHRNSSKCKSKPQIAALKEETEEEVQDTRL
T2 sequence (P13569 with tags, fused parts or gaps DEL508-508): as above

Row | Compound | TECC24 AUC fold over DMSO [1] | EC50 [2] [nM] | Emax [2] [%]
1 | CC(C)(C)[C@H](NC(=O)c1ccc2sccc2c1OCc1ccc(C(F)(F)F)cc1)C(=O)O [Compound 32-9, (2S)-3,3-dimethyl-2-(4-((4-(trifluoromethyl)benzyl)oxy)-benzo[b]thiophene-5-carboxamido)butanoic acid] | C (“C” refers to AUC @10 μM < 4) | 1080 | 193
2 | Cc1cc2ccc(C(=O)N[C@H](C(=O)O)C(C)(C)C)c(OCc3ccc(OC(F)(F)F)cc3)c2s1 [Compound 33-8, (2S)-3,3-dimethyl-2-(2-methyl-7-((4-(trifluoromethoxy)benzyl)oxy)-benzo[b]thiophene-6-carboxamido)butanoic acid] | A (“A” refers to AUC @10 μM > 6) | 658 | 155
3 | CCC(C)(C)[C@H](NC(=O)c1ccc2sc(C(F)(F)F)cc2c1OCc1ccc(OC(F)(F)F)cc1)C(=O)O [Compound 33-35, (2S)-3,3-dimethyl-2-(4-((4-(trifluoromethoxy)benzyl)oxy)-2-(trifluoromethyl)-benzo[b]thiophene-5-carboxamido)pentanoic acid] | A (“A” refers to AUC @10 μM > 6) | 678 | 199
4 | CC(C)(C)[C@H](NC(=O)c1ccc2sccc2c1OCC1CCC(F)(F)CC1)C(=O)O [Compound 32-7, (2S)-2-(4-((4,4-difluorocyclohexyl)methoxy)-benzo[b]thiophene-5-carboxamido)-3,3-dimethylbutanoic acid] | C (“C” refers to AUC @10 μM < 4) | 6890 | 127
5 | CCC(C)(C)[C@H](NC(=O)c1ccc2sc(OC)cc2c1OCc1ccc(C(F)(F)F)cc1)C(=O)O [Compound 33-14, (2S)-2-(2-methoxy-4-((4-(trifluoromethyl)benzyl)oxy)-benzo[b]thiophene-5-carboxamido)-3,3-dimethylpentanoic acid] | A (“A” refers to AUC @10 μM > 6) | 1980 | 422
6 | CC(C)c1cc2ccc(C(=O)N[C@H](C(=O)O)C(C)(C)C)c(OCc3ccc(OC(F)(F)F)cc3)c2s1 [Compound 33-12, (2S)-2-(2-isopropyl-7-((4-(trifluoromethoxy)benzyl)oxy)-benzo[b]thiophene-6-carboxamido)-3,3-dimethylbutanoic acid] | C (“C” refers to AUC @10 μM < 4) | 999 | 150
7 | CC(C)(C)[C@H](NC(=O)c1ccc2sc(-c3cscn3)cc2c1OCc1ccc(C(F)(F)F)cc1)C(=O)O [Compound 33-17, (2S)-3,3-dimethyl-2-(2-(thiazol-4-yl)-4-((4-(trifluoromethyl)benzyl)oxy)-benzo[b]thiophene-5-carboxamido)butanoic acid] | C (“C” refers to AUC @10 μM < 4) | 3200 | 57.7
8 | CCC(C)(C)[C@H](NC(=O)c1ccc2cc(Cl)sc2c1OCc1ccc(OC(F)(F)F)cc1)C(=O)O [Compound 33-22, (2S)-2-(2-chloro-7-((4-(trifluoromethoxy)benzyl)oxy)-benzo[b]thiophene-6-carboxamido)-3,3-dimethylpentanoic acid] | A (“A” refers to AUC @10 μM > 6) | 755 | 169
9 | CCC(C)(C)[C@H](NC(=O)c1ccc2sc(C(F)F)cc2c1OCc1ccc(C(F)(F)F)cc1)C(=O)O [Compound 33-36, (2S)-2-(2-(difluoromethyl)-4-((4-(trifluoromethyl)benzyl)oxy)-benzo[b]thiophene-5-carboxamido)-3,3-dimethylpentanoic acid] | A (“A” refers to AUC @10 μM > 6) | 750 | 165
10 | Cc1csc2ccc(C(=O)N[C@H](C(=O)O)C(C)(C)C)c(OCc3ccc(C(F)(F)F)cc3)c12 [Compound 35-2, (2S)-3,3-dimethyl-2-[[3-methyl-4-[[4-(trifluoromethyl)phenyl]methoxy]-benzothiophene-5-carbonyl]amino]butanoic acid] | C (“C” refers to AUC @10 μM < 4) | 470 | 146
11 | Cc1c(Cl)sc2ccc(C(=O)N[C@H](C(=O)O)C(C)(C)C)c(OCc3ccc(OC(F)(F)F)cc3)c12 [Compound 34-4] | A (“A” refers to AUC @10 μM > 6) | 281 | 159
12 | Cc1c(Cl)sc2ccc(C(=O)N[C@H](C(=O)O)C3(C)CCC3)c(OCc3ccc(C(F)(F)F)cc3)c12 [Compound 34-2, (S)-2-(2-chloro-3-methyl-4-((4-(trifluoromethyl)benzyl)oxy)-benzo[b]thiophene-5-carboxamido)-2-(1-methylcyclobutyl)acetic acid] | A (“A” refers to AUC @10 μM > 6) | 1250 | 133
13 | CC(C)CCc1cc2c(OCc3ccc(C(F)(F)F)cc3)c(C(=O)N[C@H](C(=O)O)C(C)(C)C)ccc2s1 [Compound 33-2, (2S)-2-[[2-isopentyl-4-[[4-(trifluoromethyl)phenyl]methoxy]benzothiophene-5-carbonyl]amino]-3,3-dimethyl-butanoic acid] | B (“B” refers to AUC @10 μM between 4-6) | 441 | 216
14 | CCc1cc2c(OCc3ccc(OC(F)(F)F)cc3)c(C(=O)N[C@H](C(=O)O)C(C)(C)C)ccc2s1 [Compound 33-23, (2S)-2-(2-ethyl-4-((4-(trifluoromethoxy)benzyl)oxy)-3a,7a-benzo[b]thiophene-5-carboxamido)-3,3-dimethylbutanoic acid] | A (“A” refers to AUC @10 μM > 6) | 1130 | 315

From US12630521B2, “Arylamides and methods of use thereof” (Genzyme Corporation, priority 2019, dated 2026)
